From article PMC12406255, “Engineering Peptide Modulators for T‑Cell Migration by Structural Scaffold Matching” (Journal of Medicinal Chemistry, 2025)
Positions of bridges follow the written chain, without caps; N, C: chain ends. Non-standard residues stand in square brackets, D forms with d. Residues, ends and D or L forms follow the SMILES beside them. Nle = CCCC[C@H](N)C(=O)O

Tested on: CD4+ cells of MS patients
Assay: Transwell migration assay with PBMC of MS patients, CD4+ cells
Assay type: cell-based, human
Details: PBMC of treatment-naive MS patients; p = 0.0005
Protocol: 5 Activity of the novel VhTI-pep 2 and pepitem on patient lymphocytes. PPBMCs were isolated from the blood of MS patients with a very recent disease flare receiving no immunosuppressive or immunomodulatory treatment in the past. The effect of the linear pepitem and VhTI-pep 2 was tested for the T-cell populations (A) CD3^+, (B) Th1, (C) CD4^+, (D) memory CD4^+, (E) CD8^+, and (F) memory CD8^+ cells. Data are shown as mean ± SD for 4 independent measurements. Statistical analysis was performed on the level of total counted cells using repeated measures one-way ANOVA with Dunnett’s post hoc test. Statistical significance is indicated as n.s. (not significant), * p < 0.05; ** p < 0.01; *** p < 0.001.
Human microvascular endothelial cells (HMEC-1 cells, Cytion, Eppelheim, Germany) were cultured in MCDB-131 medium (with 2.2 g/L sodium bicarbonate, without L-glutamine, PAN-Biotech Aidenbach, Germany) supplemented with 10% fetal bovine serum (FBS, Capricorn Scientific, Ebsdorfergrund, Germany), 100 units/ml penicillin-streptomycin (Sigma-Aldrich) 10 ng/mL epidermal growth factor (BioLegend, San Diego, US), 1 μg/mL hydrocortisone (Sigma-Aldrich), and 10 mM L-glutamine (Sigma-Aldrich). For experiments, the cells were used between passage numbers 4–9. […]

`CCCC[C@@H]1NC(=O)[C@H](C(C)C)NC(=O)[C@H](CCCCN)NC(=O)[C@@H](NC(=O)[C@H](CCC(N)=O)NC(=O)[C@H](CCC(=O)O)NC(C)=O)CSSC[C@@H](C(=O)N[C@@H](CCC(=O)O)C(=O)N[C@@H](CCCCN)C(N)=O)NC(=O)[C@H](CC(N)=O)NC(=O)[C@H](CC(=O)O)NC(=O)[C@H](CC(C)C)NC(=O)[C@@H]2CSSC[C@H](NC1=O)C(=O)N[C@@H](Cc1ccc(O)cc1)C(=O)N[C@@H](C)C(=O)N[C@@H](CCC(N)=O)C(=O)NCC(=O)N[C@@H](C)C(=O)N[C@@H](CCC(=O)O)C(=O)N[C@@H](CC(C)C)C(=O)N1CCC[C@H]1C(=O)N[C@@H](CCC(=O)O)C(=O)N[C@@H](CC(C)C)C(=O)N[C@@H](CC(C)C)C(=O)N[C@@H](CCCNC(=N)N)C(=O)N[C@@H](CCCNC(=N)N)C(=O)N2` [VhTI-pep 2] (Ac-EQCKV[Nle]CYAQGAELPELLRRCLDNCEK-NH2; disulfide 3-25, 7-21) was tested, and the “migration of CD4+ cells of MS patients (in words)” value was “significantly reduced”.
